The values below come from patent publication US10131671B2, “Organic compounds” (Intra-Cellular Therapies, Inc., priority 2014, dated 2018).

Data set [1] can be described thus: Pharmacokinetic analysis in mice: plasma and brain levels after oral dose. In kind it is in vivo, C57BL/6 mice. Conditions: male, C57BL/6, mouse, 10 mg/kg, 10 mg/kg PO, Brain AUC(0-2h)/Plasma AUC(0-2h) or Brain Cmax/Plasma Cmax, read-out: ratio of brain/plasma concentration (B/P). On the procedure: Animals: Male, C57BL/6 mice (Jackson Labs, 25-30 g in body weight) are provided by Jackson Laboratories. Up to five mice are housed per cage and are maintained under a 12 hour light/dark cycle with access to food and water ad libitum. All procedures for the handling and use of animals follow the guidelines of the Institutional Animal Care and Use Committee (IACUC) of Columbia University, in accordance with NIH guidelines. Eight week-old mice (N=3/dose level or treatment group) are used in the experiments.
Experimental Treatment: Compounds: Selected Compounds of the Invention are evaluated in the present study. Formulation/Vehicle: 3% 1N HCl, 5% Labrasol and 92% of 5% TPGS in 0.05M Citrate buffer (CB, pH 4.0). The test compound(s) are prepared as solution in vehicle and are dosed in a volume of 8 ml/kg.
Compound Preparation: Powdered stocks of the test compound(s) are measured and dissolved in 3% 1N HCl, 5% Labrasol and 92% of 5% TPGS in 0.05M Citrate buffer (CB, pH 4.0). Two or three layers of 3 mm glass beads are added to the bottom of the 10 ml glass tube to promote mixing. […]
Treatment of Animals: Mice (N=3 mice/dose/time point) receive a 10 mg/kg oral (PO) dose of the test compound(s) at time 0. […] Plasma and brain tissue samples are processed and analyzed by the analytical group using LC-MS/MS methods, as described below. […]
Each tube is vortexed, then centrifuged for 20 min at 15000 rpm using a Tomy benchtop centrifuge at 4° C. Standard is an internal standard used for LC-MS/MS quantitation. […]
HPLC and Mass Spectrometric Analysis: Analysis to quantify the concentration of each compound in plasma and brain homogenate is carried out using reverse phase HPLC followed by mass spectrometric detection using the parameters listed:
Each compound is detected and quantified using Multiple Reaction Monitoring (MRM) of positive electrospray mode with a Waters QuattroMicro™ mass spectrometry system.
RESULTS: Plasma and Brain Analysis: All the test compound(s) tested could be detected and analyzed when spiked into control plasma. […]

Data set [2] deals with isoproterenol-induced cardiac hypertrophy. Kind of data set: Isoproterenol induced cardiac hypertrophy mouse model. Format: in vivo, 129S1/SvlmJ mice. Particulars: for HW/TL Ratio (mean): isoproterenol 10 mg/kg s.c. days 4-9, heart weight/tibia length on day 10. On the procedure: The compound of Example 2 is tested in a mouse model where the mice are treated with isoproterenol. Such a model can be useful for extrapolating to diseases or disorders involving an enlargement of the heart or cardiac tissue, e.g., congestive heart disease. Animals: 129S1/SvlmJ mice, 20-40 grams, Jackson Laboratories (Bar Harbor, Me.). Test Compound of Example 2: Test compound of Example 2 is supplied as a powder. The test article dosing solutions are prepared on the day of administration by dissolving the test compound in the vehicle (0.9% sodium chloride for injection, U.S.P.) at concentration of 2.0 mg/mL stock/dosing solution. The compound are agitated with a vortex mixer and sonicated to ensure the compound is in solution. The 2.0 mg/mL solution is diluted with vehicle to create the 0.2 mg/mL and the 0.6 mg/mL dosing solutions. Dosing solutions are stored in a refrigerator between the daily doses and are allowed to return to room temperature before the evening dose. Test Compound Isoproterenol: Test compound isoproterenol is supplied by Sigma (St. Louis, Mo.) as a powder. The test article dosing solutions are prepared on the day of administration by dissolving the test compound in the vehicle (0.9% sodium chloride for injection, U.S.P.) at concentration of 2.0 mg/mL. The compound is agitated with a vortex mixer and sonicated to ensure the compound is in solution. [table] Mice in group 1 and 2 are dosed daily via subcutaneous administration. On days 7, 10 and 14, 2 animals from groups 1 and 2 are weighed and then euthanized via CO2 asphyxiation. Hearts are harvested and gently infused with ice cold saline until clear. The entire heart is weighed. The atria are removed and the left ventricle (with septum) is separated from the right ventricle. The ventricles are weighed separately. The left tibia is removed and separated from the soft tissue. Longitudinal measurement are obtained with a digital micrometer. Mice in groups 3-6 are dosed once/day with isoproterenol subcutaneously from Days 4-9 and twice/day with vehicle or test compound via intraperitoneal administration from Days 1 to 9. On Day 10 (based on the results from Groups 1 and 2) animals from each group are weighed and then euthanized via CO2 asphyxiation. Hearts are harvested and gently infused with ice cold krebs-henseleit buffer (Sigma 3753) until clear. The entire heart is weighed. The atria are removed and the left ventricle (with septum) is separated from the right ventricle. The ventricles are weighed separately. The ventricles are stored in ice cold krebs-henseleit buffer for approximately 15 minutes and then transferred to 10% buffered formalin at room temperature until possible shipment for possible future analysis. The left tibia is removed and separated from the soft tissue. Longitudinal measurement is obtained with a digital micrometer.

In a further data set the test system is TAC-induced hypertrophy. Kind of data set: Transverse aortic constriction (TAC) mouse model of cardiac hypertrophy. In kind it is in vivo, C59Bl/6 mice. Particulars: for Terminal LV + S/TL Ratio (mean) (TAC ratio): day 1-28 post-surgery, left ventricle+septum weight/tibia length. The procedure: Animals: C59Bl/6 mice, 20-40 grams, Charles River (Portage, Mich.).
Test Compound of Example 2: Test compound of Example 2 is formulated. The test article dosing solutions are prepared by titrating the free base with 1 mole/mole dilute (0.02N) HCl and diluting the dissolved test compound in the vehicle (0.5% methylcellulose in distilled water) to a final concentration of 0.45 mg/mL and 1.5 mg/mL dosing solution. A supply of formulation for thirty days of dosing are prepared (day 1-6 for 1st surgical cohort).
Reference Test Compound—Losartan potassium: Losartan is obtained by CorDynamics, and prepared on the day of administration by dissolving in the vehicle (0.5% methylcellulose in distilled water) at concentration of 4.5 mg/mL dosing solution. The compound is agitated with a vortex mixer and sonicated to ensure the compound is in solution.
Transverse Aortic Constriction Surgery: Animals are anesthetized with isoflurane using a nose cone connected to a vaporizer that delivers 1-2% isoflurane driven by 100% oxygen. After initial anesthesia with isoflurane, mice receive 1 mg/kg Buprenex SR (1 mg/mL, s.c.) and 10 mg/kg of etomidate (2 mg/mL, i.p.). Animals are intubated for mechanical ventilation. The endotracheal tube is connected to a mechanical ventilator that provides positive-pressure ventilation with 1-2% isoflurane remainder oxygen, set to maintain ˜120 breaths/min with a tidal volume of ˜200 μL. Body temperature is monitored throughout the experiment.
A sternotomy is performed from the manubrium through the second or third rib in order to expose the aorta in the thoracic cavity. The aorta is cleaned of surrounding tissue and the transverse aorta clamped with a titanium microclip, the diameter similar to a 27 G needle. The transverse aorta from mice in Group 1 is cleaned of surrounding tissue but not clamped. The incision is closed, endotracheal tube is removed and animal is allowed to recover.
Mice are dosed twice daily with vehicle or the compound of Example 2 via oral administration with approximately 6 hours between each dose beginning at 1 day post-surgery. Mice are dosed once daily with losartan via oral administration. Body weights are taken after arrival, prior to surgery, prior to dosing on the first day of dosing and every third day of dosing for dose calculation purposes.
On day 28, echocardiographic measurements are performed for all experimental groups. Animals are anesthetized with isoflurane using a nose cone connected to a vaporizer that delivers 1-2% isoflurane driven by 100% oxygen. Mice are placed in the dorsal decubitus position on a warming platform to maintain body temperature at 37±0.5° C. Heart rate is monitored throughout the experiment. Transthoracic two-dimensional, B-mode, M-mode and pulsed Doppler images are acquired with a high-resolution echocardiographic system (VeVo 770, Visual Sonics, Toronto, ON, Canada) equipped with a 30-MHz mechanical transducer.
After echocardiographic measurements, animals are euthanized via CO2 asphyxiation. Hearts and lungs are harvested and gently infused with ice cold krebs-henseleit buffer (Sigma 3753) until clear. Lungs are weighed and the right and left lung are separated. The right and left lung are immediately frozen in liquid nitrogen and placed into separate tubes. The entire heart is weighed. The atria are removed and the left ventricle (with septum) is separated from the right ventricle. The ventricles are weighed separately before being divided into two pieces. Ventricle pieces are frozen in liquid nitrogen and placed into separate tubes. Liquid nitrogen samples are stored in a freezer set to maintain approximately −80° C. until shipped on dry ice to the Sponsor for possible future analysis.
The left tibia is removed and separated from the soft tissue. Longitudinal measurement will be obtained with a digital micrometer. The dissected tibia is disposed of with the rest of the carcass.

With `CN1C(=O)c2c(nn(Cc3ccc(C(F)(F)F)cc3)c2Nc2ccccc2)N2C1=N[C@@H]1CCC[C@@H]12` [(6aR,9aS)-3-(phenylamino)-5,6a,7,8,9,9a-hexahydro-5-methyl-2-(4-(trifluoromethyl)-benzyl)-cyclopent[4,5]imidazo[1,2-a]pyrazolo[4,3-e]pyrimidin-4(2H)-one, reference compound], the Kp in data set [1] is 4.5 to 4.8.

On to `CN1C(=O)c2c(nn(Cc3ccncc3)c2Nc2ccc(F)cc2)N2CC(C)(C)N=C12` [Example 1, 3-((4-fluorophenyl)amino)-5,7,7-trimethyl-2-(pyridin-4-ylmethyl)-7,8-dihydro-2H-imidazo[1,2-a]pyrazolo[4,3-e]pyrimidin-4(5H)-one], for which the Kp in data set [1] is at most 0.1.

For the compound `Cc1ncc(Cn2nc3c(c2Nc2ccc(F)cc2)C(=O)N(C)C2=NC(C)(C)CN23)cn1` [Example 2, 3-((4-fluorophenyl)amino)-5,7,7-trimethyl-2-((2-methylpyrimidin-5-yl)methyl)-7,8-dihydro-2H-imidazo[1,2-a]pyrazolo[4,3-e]pyrimidin-4(5H)-one], the “reduction in the heart weight/tibia length (HW/TL) ratio compared to vehicle” value in data set [2] (1 mg/kg) was around 8%; in data set [2] (3 mg/kg), around 12.5%; in data set [2] (10 mg/kg), around 12.5%. Further, the HW/TL Ratio (mean) in data set [2] (1 mg/kg twice/day days 1-9) turned out to be 8.49 mg/mm; in data set [2] (3 mg/kg twice/day days 1-9) it was 8.08 mg/mm; in data set [2] (10 mg/kg twice/day days 1-9), 8.1 mg/mm. Also, the “decrease of (LV+RV)/TL ratio (left ventricle plus right ventricle weight/tibia length) compared to vehicle” value in data set [2] (3 mg/kg) and in data set [2] (10 mg/kg) was 10% throughout. Moreover, the “prevention of cardiac hypertrophy” value in data set [2] (3 mg/kg) and in data set [2] (10 mg/kg) was “significantly prevents cardiac hypertrophy” in each case. In addition, the “effect on the development of isoproterenol-induced cardiac hypertrophy” value in data set [2] (up to 10 mg/kg) is recorded as “statistically significant effect”. The “effect on cardiac hypertrophy induced by the TAC constriction” value with TAC-induced hypertrophy (3 mg/kg) and in the data set with TAC-induced hypertrophy (10 mg/kg) was “tendency to reverse the cardiac hypertrophy” each time. For the same compound, the “Terminal LV + S/TL Ratio (mean) (TAC ratio)” value in the data set on TAC-induced hypertrophy (3 mg/kg oral twice/day) and in the data set on TAC-induced hypertrophy (10 mg/kg oral twice/day) was 5.8 mg/mm each time. Besides, in the data set with TAC-induced hypertrophy (sham vs compound groups), the “difference in TAC ratio between the sham group and the treated groups” value is “not statistically significant”.

`CN1C(=O)c2c(nn(Cc3ccc(S(N)(=O)=O)cc3)c2Nc2ccc(F)cc2)N2CC(C)(C)N=C12` [Example 7, 4-((3-((4-fluorophenyl)amino)-5,7,7-trimethyl-4-oxo-4,5,7,8-tetrahydro-2H-imidazo[1,2-a]pyrazolo[4,3-e]pyrimidin-2-yl)methyl)benzenesulfonamide]: in data set [1], the Kp was below 0.05.

Take `CCCCc1nc(Cl)c(CO)n1Cc1ccc(-c2ccccc2-c2nn[nH]n2)cc1` [Losartan, Losartan potassium, reference compound]: in the data set with TAC-induced hypertrophy (40 mg/kg (as printed in the results table) oral once/day), the “Terminal LV + S/TL Ratio (mean) (TAC ratio)” value turned out to be 6.2 mg/mm. Moreover, in the data set with TAC-induced hypertrophy (vehicle vs Losartan group), the “difference in TAC ratio between the vehicle group and the treated group” value is listed as “not statistically significant”.
